Our source for the inhibition, EC50 and IC50 values is ChEMBL document CHEMBL2028040, “Malaria Box”.

pEC50, pIC50: −log10 of the molar value.

The subject of data set [1] is Plasmodium falciparum. Briefly: MMV: Inhibition of Plasmodium falciparum 3D7 at 2uM compound concentration. The data set is classed as functional.
The subject of data set [2] is Plasmodium falciparum. Briefly: MMV: Inhibition of Plasmodium falciparum 3D7 (EC50). The data set is classed as functional, organism-based.
Another data set relates to Trypanosoma cruzi. The data set can be described thus: MMV: Inhibition of Trypanosoma cruzi (Tulahuen C4 LacZ) (Chagas in vitro). The data set is classed as functional, organism-based.
Data set [3] has as its system Trypanosoma brucei brucei. Briefly: MMV: Inhibition of Trypanosoma brucei brucei (Squib 427) (HAT in vitro). The data set is classed as functional, organism-based.
Data set [4] has as its system Trypanosoma brucei rhodesiense. Briefly: MMV: Inhibition of Trypanosoma brucei rhodesiense (STIB 900) (HAT in vitro). The data set is classed as functional, organism-based.
A further data set relates to Leishmania infantum. The data set can be described thus: MMV: Inhibition of Leishmania infantum (MHOM/MA/BE/67) in vitro. It is filed as functional, organism-based.
Data set [5] is described as follows: MMV: Cytotoxicity against human fibroblasts (MRC-5) cells. The conditions noted are these: MRC-5 cells (human fibroblasts).

For `CN(C)CCNc1cc(-c2ccccc2)nc2ccccc12`, in the data set on Plasmodium falciparum [1], the inhibition at 2 µM turned out to be 92%. This compound also had a pEC50 with Plasmodium falciparum [2] of 5.40. For the same compound, the negative logarithm of the IC50 (pIC50) in the data set with Trypanosoma cruzi is 5.14; in data set [3] it was 5.41; in data set [4] it was 5.39; in the data set with Leishmania infantum, 5.20; in data set [5], 4.60.

`COc1ccc2nc(C)cc(Nc3ccc(Cl)cc3)c2c1` had an inhibition at 2 µM in the data set with Plasmodium falciparum [1] of 95%. This compound also showed a pEC50 in the data set with Plasmodium falciparum [2] of 5.70. In addition, the pIC50 with Trypanosoma cruzi is 5.44; in data set [3], 5.45; in data set [4], 5.46; with Leishmania infantum it was 5.39; in data set [5], < 4.49.

The compound `COc1cccc(Nc2nc(N)c3ccccc3n2)c1` displayed an inhibition at 2 µM in the data set on Plasmodium falciparum [1] of 94%. This compound gave a pEC50 with Plasmodium falciparum [2] of 5.40. Also, the negative logarithm of the IC50 (pIC50) in the data set with Trypanosoma cruzi was 4.80; in data set [3], 5.04; in data set [4], 4.92; in the data set on Leishmania infantum, 4.92; in data set [5], < 4.49.

In the case of `CN1CCN(c2c3c(c(C#N)c4nc5ccccc5n24)CCC3)CC1`, in the data set on Plasmodium falciparum [1], testing at 2 µM gave an inhibition of 42%. Also, in the data set with Plasmodium falciparum [2], the negative-log EC50 (pEC50) is 5.40. Also, the negative logarithm of the IC50 (pIC50) (with Trypanosoma cruzi; in data set [3]; in data set [4]; with Leishmania infantum; in data set [5]) was < 4.49 in each case.

As for `CCOc1ccc2nc(C)cc(Nc3ccc(N(C)C)cc3)c2c1`, in the data set with Plasmodium falciparum [1], the inhibition at 2 µM stood at 94%. In the data set with Plasmodium falciparum [2], this compound showed a negative-log EC50 (pEC50) of 5.40. Further, the pIC50 in the data set with Trypanosoma cruzi was 4.86; in data set [3], 5.43; in data set [4], 5.46; with Leishmania infantum it was 5.40; in data set [5], 4.73.

On to `Cc1cccc(Nc2nc(N)c3ccccc3n2)c1`, for which, in the data set with Plasmodium falciparum [1], the inhibition at 2 µM was determined as 97%. Moreover, in the data set on Plasmodium falciparum [2], the pEC50 is 6.40. Moreover, the pIC50 in the data set with Trypanosoma cruzi was 4.94; in data set [3] it was 4.75; in data set [4], 4.94; with Leishmania infantum, 5.36; in data set [5], < 4.49.

In the data set with Plasmodium falciparum [1], `Cc1ccc(Nc2nc(N)c3ccccc3n2)cc1Cl` returned an inhibition at 2 µM of 96%. Further, in the data set with Plasmodium falciparum [2], the pEC50 was 5.40. Moreover, the negative logarithm of the IC50 (pIC50) with Trypanosoma cruzi was 5.42; in data set [3] it was 5.48; in data set [4], 5.19; with Leishmania infantum, 5.40; in data set [5], 4.81.

`COc1cc(SC)ccc1C(=O)N1CCCC(C)C1` (centres undefined) yielded an inhibition at 2 µM with Plasmodium falciparum [1] of 45%. The same compound showed a pEC50 in the data set on Plasmodium falciparum [2] of 5.40. Besides, the pIC50 (in the data set with Trypanosoma cruzi; in data set [3]; in data set [4]; in the data set with Leishmania infantum; in data set [5]) was < 4.49 throughout.

The compound `Cc1ccc2c(C)nc(Nc3nc(C)cc(-c4ccccc4)n3)nc2c1` registered an inhibition at 2 µM in the data set with Plasmodium falciparum [1] of 73%. Also, the pEC50 in the data set with Plasmodium falciparum [2] is 5.40. For the same compound, the negative-log IC50 (pIC50) in the data set on Trypanosoma cruzi is 4.68; in data set [3], < 4.49; in data set [4] it was 4.56; in the data set on Leishmania infantum, < 4.49; in data set [5], < 4.49.

`CCOc1ccc(Nc2ccnc3cc(Cl)ccc23)cc1` displayed an inhibition at 2 µM in the data set on Plasmodium falciparum [1] of 94%. The compound further showed a pEC50 in the data set on Plasmodium falciparum [2] of 5.40. The pIC50 (in the data set with Trypanosoma cruzi; in data set [3]; in data set [4]; in the data set on Leishmania infantum; in data set [5]) was < 4.49 each time.

Regarding `CCCCc1c(C)nc2c(OC)cccc2c1O`, the inhibition at 2 µM with Plasmodium falciparum [1] came out at 92%. The pEC50 in the data set with Plasmodium falciparum [2] was 5.40. Moreover, the pIC50 (in the data set on Trypanosoma cruzi; in data set [3]; in data set [4]; in the data set with Leishmania infantum; in data set [5]) was < 4.49 in each case.

On to `CCc1ccc(Nc2cc(C)nc3nc(C)nn23)cc1`, for which, in the data set on Plasmodium falciparum [1], 2 µM produced 81% inhibition. In the data set on Plasmodium falciparum [2], this compound had a pEC50 of 5.40. Moreover, the pIC50 (in the data set on Trypanosoma cruzi; in data set [3]; in data set [4]; with Leishmania infantum; in data set [5]) was < 4.49 each time.

A word on the inhibition: it is the drop in the measured response relative to a control, in per cent. The low end stands for a weak effect, the high end for a strong effect. In general, pEC50 refers to the negative decadic logarithm of the EC50, by convention in mol/L. High values mean a small EC50, low ones a large EC50. In general, pIC50 refers to the negative decadic logarithm of the IC50, by convention in mol/L. The low end stands for a high IC50, the high end for a low IC50.
